Results reported in the supplement of paper PMC10883282.
± gives the standard deviation of the averaged measurements.

System: A204
Assay: relative viability vs DMSO control (72 h) (fraction); higher = more viable cells
Summary of the method: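 After seeding at densities set for 80–90% confluence in 384-well plates, sarcoma cell lines waited 24 h before 2.5 µl of serially diluted compound was added. Source plates held 10 mM down to 0.0002 mM. Plates were incubated 72 h at 37 °C with 5% CO2, with 0.1% DMSO vehicle and a 5 µM positive control, and relative viability was taken from ATPLite as percent growth averaged over up to triplicate wells, with 1 set as full and 0 as none.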

| Structure (SMILES) | relative viability (0.00017 µM) | relative viability (0.00051 µM) | relative viability (0.00152 µM) | relative viability (0.00457 µM) | relative viability (0.01372 µM) | relative viability (0.04115 µM) | relative viability (0.1235 µM) | relative viability (0.3704 µM) | relative viability (1.111 µM) | relative viability (3.333 µM) | relative viability (10 µM) |
| --- | --- | --- | --- | --- | --- | --- | --- | --- | --- | --- | --- |
| CCN1CCN(Cc2ccc(Nc3ncc(F)c(-c4cc(F)c5nc(C)n(C(C)C)c5c4)n3)nc2)CC1 [Abemaciclib] | 1.05 ± 0.033 | 1.04 ± 0.035 | 1.04 ± 0.017 | 1.03 ± 0.034 | 0.976 ± 0.015 | 0.876 ± 0.027 | 0.77 ± 0.08 | 0.564 ± 0.023 | 0.417 ± 0.024 | 0.383 ± 0.031 | 0.333 ± 0.029 |
| CC(C)NC(=O)C1CCC(n2c(NC(=O)c3ccc(F)cc3)nc3ccc(CN4CCC(C(C)(C)O)CC4)cc32)CC1 (stereo not drawn) [Belizatinib] | 1.1 ± 0.019 | 1.11 ± 0.056 | 1.11 ± 0.034 | 1.08 ± 0.02 | 1.092 ± 0.0066 | 1.09 ± 0.044 | 1.08 ± 0.026 | 1.05 ± 0.029 | 0.984 ± 0.086 | 0.727 ± 0.019 | 0.361 ± 0.069 |
| CC[C@H](Nc1ncnc2[nH]cnc12)c1nc2cccc(F)c2c(=O)n1-c1ccccc1 [Idelalisib] | 1.08 ± 0.023 | 1.1 ± 0.043 | 1.1 ± 0.032 | 1.1 ± 0.046 | 1.07 ± 0.081 | 1.06 ± 0.041 | 1.03 ± 0.023 | 1.02 ± 0.021 | 0.973 ± 0.067 | 0.835 ± 0.015 | 0.61 ± 0.033 |
| CC(C)(C)c1cc(NC(=O)Nc2ccc(-c3cn4c(n3)sc3cc(OCCN5CCOCC5)ccc34)cc2)no1 [Quizartinib] | 1.05 ± 0.035 | 1.08 ± 0.02 | 1.06 ± 0.032 | 1.08 ± 0.023 | 1.067 ± 0.0075 | 0.946 ± 0.039 | 0.752 ± 0.052 | 0.472 ± 0.011 | 0.42 ± 0.02 | 0.369 ± 0.032 | 0.396 ± 0.021 |
| Cc1cnc(Nc2ccc(OCCN3CCCC3)cc2)nc1Nc1cccc(S(=O)(=O)NC(C)(C)C)c1 [Fedratinib] | 1.07 ± 0.066 | 1.07 ± 0.022 | 1.13 ± 0.041 | 1.08 ± 0.035 | 1.09 ± 0.017 | 1.02 ± 0.034 | 0.97 ± 0.035 | 0.712 ± 0.088 | 0.396 ± 0.056 | 0.13 ± 0.016 | 0.0146 ± 0.0016 |
| CC1(C)CNc2cc(NC(=O)c3cccnc3NCc3ccncc3)ccc21 [Motesanib] | 0.977 ± 0.038 | 1.01 ± 0.046 | 1.01 ± 0.037 | 0.995 ± 0.015 | 0.968 ± 0.025 | 0.895 ± 0.045 | 0.76 ± 0.059 | 0.524 ± 0.017 | 0.393 ± 0.0075 | 0.3783 ± 0.0025 | 0.312 ± 0.012 |
| Nc1cc(C(F)(F)F)c(-c2cc(N3CCOCC3)nc(N3CCOCC3)n2)cn1 [Buparlisib] | 1.05 ± 0.023 | 1.03 ± 0.021 | 1.05 ± 0.032 | 1.02 ± 0.013 | 1.03 ± 0.065 | 1.01 ± 0.038 | 0.879 ± 0.021 | 0.673 ± 0.011 | 0.332 ± 0.066 | 0.174 ± 0.0058 | 0.155 ± 0.0086 |
| Cc1cc(C)c(/C=C2\C(=O)Nc3ccccc32)[nH]1 [Semaxanib] | 1.02 ± 0.067 | 1.03 ± 0.021 | 0.964 ± 0.055 | 0.966 ± 0.067 | 0.977 ± 0.052 | 0.925 ± 0.075 | 0.883 ± 0.015 | 0.852 ± 0.032 | 0.823 ± 0.041 | 0.568 ± 0.043 | 0.33 ± 0.032 |
| CCc1cc2c(cc1N1CCC(N3CCOCC3)CC1)C(C)(C)c1[nH]c3cc(C#N)ccc3c1C2=O [Alectinib] | 1.09 ± 0.015 | 1.07 ± 0.028 | 1.09 ± 0.023 | 1.1 ± 0.036 | 1.08 ± 0.012 | 1.09 ± 0.0079 | 1.13 ± 0.021 | 1.13 ± 0.014 | 1.104 ± 0.005 | 1.14 ± 0.036 | 1.14 ± 0.07 |
| Cn1cnc2c(F)c(Nc3ccc(Br)cc3F)c(C(=O)NOCCO)cc21 [Binimetinib] | 1.04 ± 0.031 | 1.06 ± 0.029 | 1.063 ± 0.0083 | 1.07 ± 0.019 | 1.04 ± 0.015 | 1.02 ± 0.043 | 1.02 ± 0.023 | 0.9365 ± 0.0019 | 0.922 ± 0.023 | 0.902 ± 0.038 | 0.713 ± 0.023 |
| C=CC(=O)Nc1cccc(Oc2nc(Nc3ccc(N4CCN(C)CC4)cc3)nc3ccsc23)c1 [Olmutinib] | 1.09 ± 0.028 | 1.05 ± 0.038 | 1.06 ± 0.019 | 1.06 ± 0.039 | 1.05 ± 0.031 | 1.05 ± 0.02 | 1.01 ± 0.03 | 1.03 ± 0.022 | 0.929 ± 0.054 | 0.568 ± 0.064 | 0.177 ± 0.031 |
| CN1CCN(c2ccc3nc(-c4c(N)c5c(F)cccc5[nH]c4=O)[nH]c3c2)CC1 [Dovitinib] | 1.1 ± 0.031 | 1.06 ± 0.031 | 1.06 ± 0.064 | 1.07 ± 0.046 | 1.01 ± 0.052 | 1.03 ± 0.056 | 0.907 ± 0.1 | 0.771 ± 0.029 | 0.355 ± 0.054 | 0.0814 ± 0.011 | 0.0143 ± 0.0029 |
| O=C(Cc1ccc(-c2ccc(OCCN3CCOCC3)cc2)cn1)NCc1ccccc1 [KX2-391] | 1.09 ± 0.031 | 1.07 ± 0.042 | 1.11 ± 0.04 | 1.05 ± 0.033 | 1.04 ± 0.084 | 0.894 ± 0.072 | 0.458 ± 0.064 | 0.36 ± 0.032 | 0.341 ± 0.014 | 0.31 ± 0.02 | 0.266 ± 0.0096 |
| C[C@@H]1COCCN1c1cc(-c2ccnn2C)c2ccnc(-c3ccn[nH]3)c2n1 | 1.07 ± 0.068 | 1.05 ± 0.039 | 1.07 ± 0.067 | 1.08 ± 0.061 | 1.03 ± 0.037 | 0.903 ± 0.019 | 0.668 ± 0.05 | 0.431 ± 0.04 | 0.291 ± 0.015 | 0.231 ± 0.0066 | 0.222 ± 0.0062 |
| CNC(=O)c1cc(Oc2ccc(NC(=O)Nc3ccc(Cl)c(C(F)(F)F)c3)c(F)c2)ccn1 [Regorafenib] | 1.06 ± 0.046 | 1.07 ± 0.05 | 1.05 ± 0.067 | 1.08 ± 0.051 | 1.079 ± 0.0072 | 1.05 ± 0.032 | 0.987 ± 0.06 | 0.589 ± 0.033 | 0.434 ± 0.0088 | 0.305 ± 0.033 | 0.219 ± 0.0053 |
| Cc1ccc(NC(=O)c2ccc(CN3CCN(C)CC3)cc2)cc1Nc1nc(-c2cccnc2)cs1 [Masitinib] | 1.01 ± 0.019 | 1.03 ± 0.039 | 1.06 ± 0.013 | 1.05 ± 0.065 | 1.09 ± 0.03 | 0.976 ± 0.033 | 0.772 ± 0.012 | 0.472 ± 0.011 | 0.303 ± 0.015 | 0.194 ± 0.015 | 0.0391 ± 0.0062 |
| CNC(=O)c1ccc(-c2cnc3ncc(Cc4ccc5ncccc5c4)n3n2)cc1F [Capmatinib] | 1.1 ± 0.029 | 1.07 ± 0.019 | 1.08 ± 0.04 | 1.08 ± 0.024 | 1.07 ± 0.038 | 1.06 ± 0.015 | 1.1 ± 0.02 | 1.07 ± 0.054 | 1.04 ± 0.027 | 0.984 ± 0.054 | 0.787 ± 0.035 |
| CCCS(=O)(=O)Nc1ccc(F)c(C(=O)c2c[nH]c3ncc(-c4ccc(Cl)cc4)cc23)c1F [Vemurafenib] | 1.066 ± 0.009 | 1.09 ± 0.011 | 1.07 ± 0.067 | 1.09 ± 0.043 | 1.08 ± 0.047 | 1.07 ± 0.018 | 1.07 ± 0.038 | 1.11 ± 0.025 | 1.12 ± 0.027 | 1.02 ± 0.054 | 0.617 ± 0.029 |
